Results: ChEMBL document CHEMBL3244033, “Potential antitumor agents. 21. Dialkanolamine dialkanesulfonic esters” (J Med Chem, 1977)

Tests used:
[1] = test system: Mus musculus; experiment: Acute toxicity in ip dosed C3H/HeJ female X DBA2/J male F1 hybrid mouse allografted with mouse L1210 cells assessed as mortality administered as single dose; assay type: organism-based; conditions: in vivo
[2] = Lipophilic-hydrophilic balance, Rm of the compound using mixture of glycerol, i-BuOH and 1-pentanol plus methanesulfonic acid as solvent system by acidic reversed-phase chromatography; assay type: physicochemical
[3] = test system: L1210; experiment: Antileukemic activity against mouse L1210 cells allografted in ip dosed C3H/HeJ female X DBA2/J male F1 hybrid mouse assessed as maximal increase in host life span at LD10 administered as single dose 24 hrs after tumor implantation; assay type: functional
[4] = Dissociation constant, pKa of the compound; assay type: physicochemical

For `CS(=O)(=O)OCCCNCCCOS(C)(=O)=O.Cl`, which LD10 [1] is on record?
Its LD10 is 170 mg/kg.

What about the Rm [2] of the same molecule?
The Rm was -0.88.

And the Activity [3]?
The Activity was 84%.

What about the pKa [4] of the same molecule?
Its pKa is 8.77.

With `CS(=O)(=O)OCCNCCOS(C)(=O)=O.Cl` as the molecule, how does the LD10 [1] read?
The LD10 was 25 mg/kg.

What about the Rm [2] of the same molecule?
Its Rm is -1.13.

What about the Activity [3] of the same molecule?
Its Activity is >25%.

For `CCS(=O)(=O)OCCNCCOS(=O)(=O)CC.Cl`, which LD10 [1] is on record?
The LD10 was 35 mg/kg.

And the Rm [2]?
The Rm was -0.64.

What about the Activity [3] of the same molecule?
The Activity was 26%.

With `CCCS(=O)(=O)OCCNCCOS(=O)(=O)CCC.Cl` as the molecule, how does the LD10 [1] read?
Its LD10 is 210 mg/kg.

And the Rm [2]?
Its Rm is -0.1.

And the Activity [3]?
Its Activity is 57%.

Which results are given for `CCCCS(=O)(=O)OCCNCCOS(=O)(=O)CCCC.Cl`?
LD10 [1]: 750 mg/kg; Rm [2]: 0.37; Activity [3]: 105%

For `CCCCCS(=O)(=O)OCCNCCOS(=O)(=O)CCCCC.Cl`, which LD10 [1] is on record?
Its LD10 is 520 mg/kg.

What about the Rm [2] of the same molecule?
The Rm was 0.76.

What about the Activity [3] of the same molecule?
Its Activity is 78%.

With `CCS(=O)(=O)OCCCNCCCOS(=O)(=O)CC.Cl` as the molecule, how does the LD10 [1] read?
Its LD10 is 410 mg/kg.

And the Rm [2]?
Its Rm is -0.47.

What about the Activity [3] of the same molecule?
The Activity was 100%.

For `CCCS(=O)(=O)OCCCNCCCOS(=O)(=O)CCC.Cl`, which LD10 [1] is on record?
Its LD10 is 285 mg/kg.

And the Rm [2]?
Its Rm is 0.09.

And the Activity [3]?
The Activity was 75%.

For `CCCCS(=O)(=O)OCCCNCCCOS(=O)(=O)CCCC.Cl`, which Rm [2] is on record?
The Rm was 0.45.

With `CS(=O)(=O)OCCCCCCNCCOS(C)(=O)=O.Cl` as the molecule, how does the LD10 [1] read?
The LD10 was 185 mg/kg.

What about the Rm [2] of the same molecule?
The Rm was -0.71.

What about the Activity [3] of the same molecule?
The Activity was 91%.

Which LD10 [1] does the source give for `CCS(=O)(=O)OCCCCCCNCCOS(=O)(=O)CC.Cl` here?
Its LD10 is 285 mg/kg.

And the Rm [2]?
Its Rm is -0.19.

What about the Activity [3] of the same molecule?
Its Activity is 83%.

Which LD10 [1] does the source give for `CCCS(=O)(=O)OCCCCCCNCCOS(=O)(=O)CCC.Cl` here?
The LD10 was 225 mg/kg.

What about the Rm [2] of the same molecule?
The Rm was 0.27.

And the Activity [3]?
Its Activity is 59%.

With `CCCCS(=O)(=O)OCCNCCCCCCOS(=O)(=O)CCC.Cl` as the molecule, how does the LD10 [1] read?
Its LD10 is 200 mg/kg.

And the Rm [2]?
Its Rm is 0.51.

What about the Activity [3] of the same molecule?
The Activity was 35%.

For `CS(=O)(=O)OCCCCCCNCCCOS(C)(=O)=O.Cl`, which LD10 [1] is on record?
The LD10 was 33 mg/kg.

And the Rm [2]?
Its Rm is -0.65.

What about the Activity [3] of the same molecule?
The Activity was 107%.

What does the source list for `CCS(=O)(=O)OCCCCCCNCCCOS(=O)(=O)CC.Cl`?
LD10 [1]: 61 mg/kg; Rm [2]: -0.05; Activity [3]: 78%

What does the source list for `CCCS(=O)(=O)OCCCCCCNCCCOS(=O)(=O)CCC.Cl`?
LD10 [1]: 137 mg/kg; Rm [2]: 0.32; Activity [3]: 45%
